# Experimental data reported in patent US20220202799A1, “PHARMACEUTICAL FORMULATIONS CONTAINING P2Y14 ANTAGONISTS” (priority 2019, published 2022).
# “And” between values parts separate entries of the source, which are not always exact repeats. Equal entries are not always repeated. Where two headings read alike, the source gives them in different places.
# Assay: Plasma concentrations and TK parameters, 72-hour continuous intravenous infusion
# Format: in vivo, Sprague-Dawley rats
# Settings: for concentration at 72 h / concentration at 78 h / concentration at 84 h / concentration at 96 h / concentration at 24 h / concentration at 48 h: Sprague-Dawley, rat, plasma, iv
# Protocol: The safety and pharmacokinetics of PPTN (KB-1801) in rats receiving continuous intravenous injections of SBECD-containing solutions were analyzed. Three cohorts of six male and six female rats each were given continuous intravenous infusion of PPTN (KB-1801) at 10 mg/kg/day, 30 mg/kg/day or 100 mg/kg/day in a dosing solution containing PPTN at 0.25 mg/mL, 0.75 mg/mL or 2.5 mg/mL and SBECD at about 3.8%. Dosing volume was 40 mIkg/day. [table]
smiles,measurement,setting,value
"O=C(O)c1cc(-c2ccc(C3CCNCC3)cc2)c2ccc(-c3ccc(C(F)(F)F)cc3)cc2c1 [KB-1801, 4-[4-(piperidin-4-yl)phenyl]-7-[4-(trifluoromethyl)phenyl]-2-naphthoic acid]",concentration at 72 h,"female, 100 mg/kg/day, female Sprague-Dawley rats, 72-hour intravenous infusion at 100 mg/kg/day, time 72 h, read-out: Plasma concentration, individual animal",7.11 µg/mL
same,concentration at 78 h,"female, 100 mg/kg/day, female Sprague-Dawley rats, 72-hour intravenous infusion at 100 mg/kg/day, time 78 h, read-out: Plasma concentration, Mean",1.82 µg/mL
same,concentration at 78 h,"female, 100 mg/kg/day, female Sprague-Dawley rats, 72-hour intravenous infusion at 100 mg/kg/day, time 78 h, read-out: Plasma concentration, individual animal",1.9 µg/mL
same,concentration at 84 h,"female, 100 mg/kg/day, female Sprague-Dawley rats, 72-hour intravenous infusion at 100 mg/kg/day, time 84 h, read-out: Plasma concentration, Mean",0.987 µg/mL
same,concentration at 84 h,"female, 100 mg/kg/day, female Sprague-Dawley rats, 72-hour intravenous infusion at 100 mg/kg/day, time 84 h, read-out: Plasma concentration, individual animal",0.841 µg/mL
same,concentration at 96 h,"female, 100 mg/kg/day, female Sprague-Dawley rats, 72-hour intravenous infusion at 100 mg/kg/day, time 96 h, read-out: Plasma concentration, Mean",0.281 µg/mL
same,concentration at 96 h,"female, 100 mg/kg/day, female Sprague-Dawley rats, 72-hour intravenous infusion at 100 mg/kg/day, time 96 h, read-out: Plasma concentration, individual animal",0.288 µg/mL
same,"Plasma concentration, individual animal","male Sprague-Dawley rats, 72-hour intravenous infusion at 10 mg/kg/day, time 24 h, 10 mg/kg/day",0.5478 µg/mL and 0.9528 µg/mL
same,"Plasma concentration, individual animal","male Sprague-Dawley rats, 72-hour intravenous infusion at 10 mg/kg/day, time 48 h, 10 mg/kg/day",0.5395 µg/mL and 0.7527 µg/mL
same,"Plasma concentration, individual animal","male Sprague-Dawley rats, 72-hour intravenous infusion at 10 mg/kg/day, time 72 h, 10 mg/kg/day",0.6178 µg/mL and 0.5459 µg/mL
same,"Plasma concentration, individual animal","male Sprague-Dawley rats, 72-hour intravenous infusion at 10 mg/kg/day, time 78 h, 10 mg/kg/day",0.2055 µg/mL and 0.1705 µg/mL
same,"Plasma concentration, individual animal","male Sprague-Dawley rats, 72-hour intravenous infusion at 10 mg/kg/day, time 84 h, 10 mg/kg/day",0.0826 µg/mL and 0.1281 µg/mL
same,"Plasma concentration, individual animal","male Sprague-Dawley rats, 72-hour intravenous infusion at 10 mg/kg/day, time 96 h, 10 mg/kg/day",0.0602 µg/mL and 0.045 µg/mL
same,"Plasma concentration, individual animal","male Sprague-Dawley rats, 72-hour intravenous infusion at 30 mg/kg/day, time 24 h, 30 mg/kg/day",1.855 µg/mL and 2.4824 µg/mL
same,"Plasma concentration, individual animal","male Sprague-Dawley rats, 72-hour intravenous infusion at 30 mg/kg/day, time 48 h, 30 mg/kg/day",2.1756 µg/mL and 2.5108 µg/mL
same,"Plasma concentration, individual animal","male Sprague-Dawley rats, 72-hour intravenous infusion at 30 mg/kg/day, time 72 h, 30 mg/kg/day",1.8712 µg/mL and 2.0315 µg/mL
same,"Plasma concentration, individual animal","male Sprague-Dawley rats, 72-hour intravenous infusion at 30 mg/kg/day, time 78 h, 30 mg/kg/day",0.6902 µg/mL and 0.8185 µg/mL
same,"Plasma concentration, individual animal","male Sprague-Dawley rats, 72-hour intravenous infusion at 30 mg/kg/day, time 84 h, 30 mg/kg/day",0.2731 µg/mL and 0.3091 µg/mL
same,"Plasma concentration, individual animal","male Sprague-Dawley rats, 72-hour intravenous infusion at 30 mg/kg/day, time 96 h, 30 mg/kg/day",0.1641 µg/mL and 0.2131 µg/mL
same,"Plasma concentration, individual animal","male Sprague-Dawley rats, 72-hour intravenous infusion at 100 mg/kg, time 24 h, 100 mg/kg",7.5979 µg/mL and 10.7028 µg/mL
same,"Plasma concentration, individual animal","male Sprague-Dawley rats, 72-hour intravenous infusion at 100 mg/kg, time 48 h, 100 mg/kg",6.1828 µg/mL and 7.5043 µg/mL
same,"Plasma concentration, individual animal","male Sprague-Dawley rats, 72-hour intravenous infusion at 100 mg/kg, time 72 h, 100 mg/kg",7.7682 µg/mL
same,"Plasma concentration, individual animal","male Sprague-Dawley rats, 72-hour intravenous infusion at 100 mg/kg, time 78 h, 100 mg/kg",1.8935 µg/mL and 2.8086 µg/mL
same,"Plasma concentration, individual animal","male Sprague-Dawley rats, 72-hour intravenous infusion at 100 mg/kg, time 84 h, 100 mg/kg",1.8182 µg/mL
same,"Plasma concentration, individual animal","male Sprague-Dawley rats, 72-hour intravenous infusion at 100 mg/kg, time 96 h, 100 mg/kg",0.3335 µg/mL and 0.4821 µg/mL
same,concentration at 24 h,"male, 10 mg/kg/day, male Sprague-Dawley rats, 72-hour intravenous infusion at 10 mg/kg/day, time 24 h, read-out: Plasma concentration, Mean",0.803 µg/mL
same,concentration at 24 h,"male, 10 mg/kg/day, male Sprague-Dawley rats, 72-hour intravenous infusion at 10 mg/kg/day, time 24 h, read-out: Plasma concentration, individual animal",0.908 µg/mL
same,concentration at 48 h,"male, 10 mg/kg/day, male Sprague-Dawley rats, 72-hour intravenous infusion at 10 mg/kg/day, time 48 h, read-out: Plasma concentration, Mean",0.603 µg/mL
same,concentration at 48 h,"male, 10 mg/kg/day, male Sprague-Dawley rats, 72-hour intravenous infusion at 10 mg/kg/day, time 48 h, read-out: Plasma concentration, individual animal",0.515 µg/mL
same,concentration at 72 h,"male, 10 mg/kg/day, male Sprague-Dawley rats, 72-hour intravenous infusion at 10 mg/kg/day, time 72 h, read-out: Plasma concentration, Mean",0.594 µg/mL
same,concentration at 72 h,"male, 10 mg/kg/day, male Sprague-Dawley rats, 72-hour intravenous infusion at 10 mg/kg/day, time 72 h, read-out: Plasma concentration, individual animal",0.618 µg/mL
same,concentration at 78 h,"male, 10 mg/kg/day, male Sprague-Dawley rats, 72-hour intravenous infusion at 10 mg/kg/day, time 78 h, read-out: Plasma concentration, Mean",0.208 µg/mL
same,concentration at 78 h,"male, 10 mg/kg/day, male Sprague-Dawley rats, 72-hour intravenous infusion at 10 mg/kg/day, time 78 h, read-out: Plasma concentration, individual animal",0.249 µg/mL
same,concentration at 84 h,"male, 10 mg/kg/day, male Sprague-Dawley rats, 72-hour intravenous infusion at 10 mg/kg/day, time 84 h, read-out: Plasma concentration, Mean",0.0989 µg/mL
